The values that follow come from a melting point compilation (Tetko et al.; mined from patent text by program, amines drawn as free bases though some values may be those of a salt).

One may read the melting point as the temperature of the solid-liquid transition.

On to `CCCCCNC(=O)N(C)c1cccc(-c2ccc(C=C(OC)C(=O)O)cc2)c1`, for which the melting point worked out at 144 °C. For the compound `O=C1CN(Cc2ccccc2)c2cc(Br)ccc2N1`, the melting point was in the range of 174 to 176 °C. On to `CCC1(C)SC(=NOC(=O)NC)N=C1C` (stereo not drawn), for which the melting point is 115 to 117 °C.

As to `COc1ccc2c(C)nnc(Cl)c2c1`, the melting point lay within 151 to 153 °C.

`CS(=O)(=O)N(c1ccc(CN2N=C(c3ccc(Cl)cc3)c3ccccc3-n3cnnc32)cc1)S(C)(=O)=O` registered a melting point of 220 to 221 °C.

As to `CCC(=O)N1CCC(NC(=O)Nc2ccc([N+](=O)[O-])cc2)CC1`, the melting point lay within 240 to 241 °C. The figure for `CC(C)c1cc(O)c(O)c(C(=O)O)c1` is 151 to 152 °C. `CC(=O)CCCSc1cc(C(C)(C)C)c(O)c(C(C)(C)C)c1` came in with a melting point of 65 to 67 °C. In turn, `CN(c1cc(OCC(N)=O)cc2cc(C3=NCC(CN4CCS(=O)CC4)S3)[nH]c12)S(=O)(=O)c1ccccn1` (stereo not drawn) showed a melting point of 160 to 161 °C.

`COc1ccc(N2N=C3c4ccccc4SCCC3CC2=O)cc1` (stereo not drawn): the melting point lay within 143 to 145 °C. On to `O=c1ccn(C/C=C/COC(c2ccccc2)(c2ccccc2)c2ccccc2)c(=O)[nH]1`, for which the melting point is 70 to 72 °C. `Brc1cccc(Br)c1OC1C=CC(Oc2c(Br)cccc2Br)C1` (stereo not drawn) displayed a melting point of 205 to 206 °C. Compound `CCOC(=O)c1c(CN2CCCC2=O)nc2sc3c(c2c1-c1ccc2c(c1)OCO2)CCN(C(=O)c1ccccc1)C3` returned a melting point of 270 to 271 °C.

`O=C1N(CCN(c2ccccn2)c2ccccn2)c2ccccc2C12COc1cc3c(cc12)OCO3` (stereo not drawn) came in with a melting point of 165 to 167 °C. In the case of `CCCCNC(=O)[C@@H](C[C@H](O)[C@H](CC1CCCCC1)NC(=O)[C@H](Cc1cscn1)NC(=O)OC(C)(C)C)C(C)C`, the melting point was 201 to 203 °C.

The compound `CC(C)(C)c1cc(C(=O)OCCC(=O)Oc2ccc(Cl)c([N+](=O)[O-])c2)cc(C(C)(C)C)c1O` yielded a melting point of 106 to 108 °C. The compound `O=C(Nc1ccc(-n2nc(C(F)(F)F)cc2C(F)(F)F)cc1)c1cc(F)c(F)c(F)c1F` came in with a melting point of 138 to 140 °C. The compound `Cc1ccc(NC(=O)c2ccc(Br)cc2)cc1N1CCN(C)CC1` came in with a melting point of 208 to 209 °C. The compound `CCCCOc1ccccc1-c1ccc(C(N)=O)c(=O)[nH]1` showed a melting point of 190 to 191 °C. Take `CCCc1nc2c(N)nc3cc(Oc4ccccc4[N+](=O)[O-])ccc3c2n1CC(C)C`: the melting point fell in the range of 207 to 208 °C. `O=C1NC(CCN2CCC(C(=O)c3ccc(F)cc3)CC2)Nc2ccccc21` (stereo not drawn) came in with a melting point of 153 °C. Turning to `CCOc1ccccc1N(C(=O)C(N)=O)c1nc(N(CC)CC)nc(N(CC)CC)n1`, the melting point was 97 to 100 °C. `OCCCSCCSCCCO` returned a melting point of 52 °C. As to `O=C(Nc1nc2ccc(Sc3nnc4ccc(-c5cnn(CCOC6CCCCO6)c5)cn34)cc2s1)C1CC1` (stereo not drawn), the melting point turned out to be 110 °C. With `COC(=O)c1ccc(Cl)c(Cn2nnn(C3CC3)c2=O)c1Cl` the figure was 99 to 100 °C.

The compound `CC(=O)N1CCN(CCN2C=Cc3cc(S(N)(=O)=O)sc3S2(=O)=O)CC1` showed a melting point of 180 to 183 °C. In the case of `CCCN1CCc2c(NC(C)=O)ccc(Br)c2C1`, the melting point was in the range of 144 to 145 °C. `O=C1N(Cc2ccc(-c3ccccc3Cl)o2)c2ccccc2C12COc1cc3c(cc12)OCO3` (stereo not drawn) came in with a melting point of 148 to 150 °C.

On to `Cc1c(-c2cccnc2)n(CCCCCC(N)=O)c2ccc(Cl)cc12`, for which the melting point was 137 to 140 °C. Compound `CC(C)(C)C(=O)Oc1cc2c(c3ccccc13)Nc1ccccc1S2` displayed a melting point of 142 °C.

For `O=S(=O)(c1ccccc1)c1c[nH]c2cccc(Br)c12`, the melting point lay within 202 to 207 °C. Take `COC(=O)c1ccc(C(F)(F)F)nc1S(=O)(=O)NC(C)(C)C`: the melting point lay in the range of 76 to 83 °C. As to `O=C(O)c1cn(Cc2ccccc2)c2nc(N3CCNCC3)ncc2c1=O`, the melting point is 250 to 253 °C.
